Measured values reported in patent publication US5496564A, “Suspendible composition and process for preparing the same” (Fujisawa Pharmaceutical Co., Ltd., priority 1990, dated 1996).

Assay: Absorption test by oral administration: concentration in whole blood
Format: in vivo
Details: cynomolgus monkey, cynomolgus monkeys (six), oral 0.32 mg/kg, aqueous suspension of Prescription 7 diluted to 0.064 mg/ml, average ± standard error, read-out: Conc. in whole blood
Experimental: The aqueous suspension obtained in Prescription 7 was used.
The oral agent mentioned above was diluted with purified water to have the concentration of FK 506 substance of 0.064 mg/ml. The resultant was orally administered to six cynomolgus monkeys (0.32 mg/kg).
The concentration of FK 506 substance in whole blood was measured 0.5, 1, 2, 4 and 6 hours after the administration in accordance with the aforesaid enzyme immunoassay.
The test results are represented by the average ± standard error.

With `C=CCC1C=C(C)CC(C)CC(OC)C2OC(O)(C(=O)C(=O)N3CCCCC3C(=O)OC(C(C)=CC3CCC(O)C(OC)C3)C(C)C(O)CC1=O)C(C)CC2OC` (centres unmarked) [FK 506 substance, 17-allyl-1,14-dihydroxy-12-[2-(4-hydroxy-3-methoxycyclohexyl)-1-methylvinyl]-23,25-dimethoxy-13,19,21,27-tetramethyl-11,28-dioxa-4-azatricyclo-[22.3.1.0^4,9]octacos-18-ene-2,3,10,16-tetraone] the concentration at 0.5 h (0.5 hours) was 13.4 ± 9.88 ng/mL, the concentration at 1 h (1 hour) was 18.6 ± 9.36 ng/mL and the concentration at 2 h (2 hours) was 18.6 ± 9.89 ng/mL. For the same compound, the concentration at 4 h (4 hours) was 15.3 ± 7.77 ng/mL and the concentration at 6 h (6 hours) was 12.4 ± 9.33 ng/mL.
